According to ChEMBL document CHEMBL3885861, “Open TG-GATES”:

Organism: Rattus norvegicus
Test: Open TG-GATES - Regimen: Single
Format: toxicity, organism-based, Sprague-Dawley
Parameters: regimen Single, gender Male, age 6 weeks
Details: in vivo, po, 3 mg/kg, route gavage, dose level Low; for APTT / Bas / Eos / Fbg / Hb / Ht / Lym / MCH / MCHC / MCV / Mono / Neu / PT / Plat / RBC / Ret / WBC: tissue Blood; for KIDNEY_L / KIDNEY_R / KIDNEY_TOTAL: tissue Kidney; for LIVER: tissue Liver; for A/G / ALP / ALT / AST / BUN / CRE / Ca / Cl / DBIL / GLC / IP / K / LDH / Na / PL / RALB / TBIL / TC / TG / TP / gamma-GTP: tissue Plasma

## CN(C)CCC(c1ccc(Cl)cc1)c1ccccn1 (configuration not stated) [CHLORPHENIRAMINE]
3 h
  TERMINAL_BW: 195.7 g
  APTT: 18 s
  Bas: 0%
  Eos: 0.6%
  Fbg: 281.4 mg/dL
  Hb: 13.4 g/dL
  Ht: 41.7%
  Lym: 72.6%
  MCH: 20.9 pg
  MCHC: 32.2%
  MCV: 64.9 fL
  Mono: 3.4%
  Neu: 22.4%
  PT: 15 s
  Plat: 124.5 x10_4/uL
  RBC: 642.6 x10_4/ul
  Ret: 8.9%
  WBC: 84.7 x10_2/uL
  KIDNEY_L: 0.9 g
  KIDNEY_R: 0.8 g
  KIDNEY_TOTAL: 1.7 g
  LIVER: 8.5 g
  A/G: 0.9
  ALP: 1618.2 IU/L
  ALT: 47 IU/L
  AST: 76 IU/L
  BUN: 9.2 mg/dL
  CRE: 0.2 mg/dL
  Ca: 10.9 mg/dL
  Cl: 106 meq/L
  DBIL: 0.01 mg/dL
  GLC: 179.8 mg/dL
  IP: 10.4 mg/dL
  K: 4.1 meq/L
  LDH: 195 IU/L
  Na: 143.6 meq/L
  PL: 140.2 mg/dL
  RALB: 2.5 g/dL
  TBIL: 0.048 mg/dL
  TC: 77.8 mg/dL
  TG: 53.4 mg/dL
  TP: 5.5 g/dL
  gamma-GTP: 2 IU/L
6 h
  TERMINAL_BW: 194.4 g
  APTT: 20 s
  Bas: 0.4%
  Eos: 1%
  Fbg: 296.2 mg/dL
  Hb: 13.2 g/dL
  Ht: 41.3%
  Lym: 75.8%
  MCH: 20.8 pg
  MCHC: 31.9%
  MCV: 65.1 fL
  Mono: 3.4%
  Neu: 19.2%
  PT: 14.9 s
  Plat: 119.3 x10_4/uL
  RBC: 633.8 x10_4/ul
  Ret: 9.5%
  WBC: 83.2 x10_2/uL
  KIDNEY_L: 0.9 g
  KIDNEY_R: 0.9 g
  KIDNEY_TOTAL: 1.8 g
  LIVER: 8.1 g
  A/G: 0.9
  ALP: 1343.4 IU/L
  ALT: 41.4 IU/L
  AST: 71.2 IU/L
  BUN: 7.8 mg/dL
  CRE: 0.2 mg/dL
  Ca: 10.5 mg/dL
  Cl: 108.4 meq/L
  DBIL: 0.004 mg/dL
  GLC: 176 mg/dL
  IP: 10.4 mg/dL
  K: 4.1 meq/L
  LDH: 200 IU/L
  Na: 144.4 meq/L
  PL: 150.2 mg/dL
  RALB: 2.5 g/dL
  TBIL: 0.052 mg/dL
  TC: 89.6 mg/dL
  TG: 42.6 mg/dL
  TP: 5.4 g/dL
  gamma-GTP: 1.4 IU/L
9 h
  TERMINAL_BW: 194.2 g
  APTT: 17.4 s
  Bas: 0%
  Eos: 1%
  Fbg: 288.2 mg/dL
  Hb: 12.8 g/dL
  Ht: 39.6%
  Lym: 77.8%
  MCH: 20.9 pg
  MCHC: 32.4%
  MCV: 64.7 fL
  Mono: 2.8%
  Neu: 18%
  PT: 14.8 s
  Plat: 119.5 x10_4/uL
  RBC: 612.4 x10_4/ul
  Ret: 9.2%
  WBC: 71.4 x10_2/uL
  KIDNEY_L: 0.9 g
  KIDNEY_R: 0.9 g
  KIDNEY_TOTAL: 1.8 g
  LIVER: 7.7 g
  A/G: 0.9
  ALP: 1240.8 IU/L
  ALT: 40.6 IU/L
  AST: 71 IU/L
  BUN: 8.2 mg/dL
  CRE: 0.1 mg/dL
  Ca: 10.3 mg/dL
  Cl: 105.8 meq/L
  DBIL: 0.006 mg/dL
  GLC: 165.2 mg/dL
  IP: 10.2 mg/dL
  K: 3.9 meq/L
  LDH: 139 IU/L
  Na: 142.8 meq/L
  PL: 143 mg/dL
  RALB: 2.5 g/dL
  TBIL: 0.046 mg/dL
  TC: 85.4 mg/dL
  TG: 37.2 mg/dL
  TP: 5.3 g/dL
  gamma-GTP: 1 IU/L
24 h
  TERMINAL_BW: 214.2 g
  APTT: 15.8 s
  Bas: 0%
  Eos: 1%
  Fbg: 291.4 mg/dL
  Hb: 12.9 g/dL
  Ht: 40.3%
  Lym: 78.2%
  MCH: 20.4 pg
  MCHC: 32.1%
  MCV: 63.5 fL
  Mono: 3%
  Neu: 16.4%
  PT: 14.6 s
  Plat: 123.3 x10_4/uL
  RBC: 634.4 x10_4/ul
  Ret: 7.9%
  WBC: 88.7 x10_2/uL
  KIDNEY_L: 0.9 g
  KIDNEY_R: 0.9 g
  KIDNEY_TOTAL: 1.8 g
  LIVER: 9.9 g
  A/G: 0.9
  ALP: 1572.2 IU/L
  ALT: 47.4 IU/L
  AST: 72.6 IU/L
  BUN: 14.4 mg/dL
  CRE: 0.2 mg/dL
  Ca: 11.2 mg/dL
  Cl: 105.6 meq/L
  DBIL: 0.016 mg/dL
  GLC: 188.6 mg/dL
  IP: 8.9 mg/dL
  K: 4.5 meq/L
  LDH: 131.6 IU/L
  Na: 142.8 meq/L
  PL: 150.4 mg/dL
  RALB: 2.6 g/dL
  TBIL: 0.05 mg/dL
  TC: 81.6 mg/dL
  TG: 80.8 mg/dL
  TP: 5.7 g/dL
  gamma-GTP: 1 IU/L
